Experimental data published in patent publication US20140031278A1, “Novel Glucagon Analogues” (NOVO NORDISK A/S, priority 2011, published 2014).
*1 amine or outer side, *2 acyl side, *3 side chain or, on linkers, in order; H or OH if unused. Where a SMILES comes first, the peptide text is derived from it. Side-chain parts run from the residue outwards. γGlu = O=C(O)[C@H](CCC(=O)[*:2])N[*:1]

Target: T1, glucagon receptor (Homo sapiens, UniProt P47871)
T1 construct: expressed in transfected cells
Assay: Assay (I) Glucagon activity (cAMP biosensor, FLIPR)
Format: cell-based
Conditions: HEK-293 cells with cloned glucagon receptor and cAMP biosensor; end point after 6 minutes
Outline: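 HEK-293 cells expressing glucagon receptor with membrane cAMP biosensor (ACTOne), calcium-dye loaded with probenecid and a PDE inhibitor.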

T1 sequence (P47871 26-477): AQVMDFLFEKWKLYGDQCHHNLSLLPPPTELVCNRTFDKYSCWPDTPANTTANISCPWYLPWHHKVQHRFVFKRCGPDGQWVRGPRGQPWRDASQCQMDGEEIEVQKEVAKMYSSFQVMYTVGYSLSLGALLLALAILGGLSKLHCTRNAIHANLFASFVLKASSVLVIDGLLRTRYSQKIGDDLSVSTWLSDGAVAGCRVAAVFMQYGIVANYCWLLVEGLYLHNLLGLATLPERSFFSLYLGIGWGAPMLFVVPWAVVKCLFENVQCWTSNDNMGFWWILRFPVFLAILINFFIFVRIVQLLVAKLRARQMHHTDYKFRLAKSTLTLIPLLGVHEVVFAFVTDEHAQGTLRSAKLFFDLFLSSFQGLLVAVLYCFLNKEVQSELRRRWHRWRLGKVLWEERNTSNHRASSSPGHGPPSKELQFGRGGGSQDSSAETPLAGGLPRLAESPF

Row | SMILES | EC50 [pM]
1 | CC(=O)N[C@@H](CCC(=O)N[C@@H](CCC(=O)N[C@@H](CCC(=O)N[C@@H](CCC(=O)NCCCC[C@H](NC(=O)[C@@H](NC(=O)[C@H](Cc1ccccc1)NC(=O)[C@H](CC(=O)O)NC(=O)[C@H](CCC(N)=O)NC(=O)[C@H](C)NC(=O)[C@H](CCCNC(=N)N)NC(=O)[C@H](CCCNC(=N)N)NC(=O)[C@H](CC(C)C)NC(=O)[C@H](CC(=O)O)NC(=O)[C@H](CC(C)C)NC(=O)[C@H](Cc1ccc(O)cc1)NC(=O)[C@H](CCCCN)NC(=O)[C@H](CO)NC(=O)[C@H](Cc1ccc(O)cc1)NC(=O)[C@H](CC(=O)O)NC(=O)[C@H](CO)NC(=O)[C@@H](NC(=O)[C@H](Cc1ccccc1)NC(=O)[C@@H](NC(=O)CNC(=O)[C@H](CCC(N)=O)NC(=O)[C@H](CO)NC(=O)[C@@H](N)Cc1c[nH]cn1)[C@@H](C)O)[C@@H](C)O)C(C)C)C(=O)N[C@@H](Cc1c[nH]c2ccccc12)C(=O)N[C@@H](CC(C)C)C(=O)N[C@@H](CC(C)C)C(=O)N[C@@H](CO)C(=O)N[C@H](C(=O)O)[C@@H](C)O)C(=O)O)C(=O)O)C(=O)O)C(=O)O [Example 38, N^ε24-[(4S)-4-[[(4S)-4-[[(4S)-4-[[(4S)-4-acetamido-4-carboxybutanoyl]amino]-4-carboxybutanoyl]amino]-4-carboxybutanoyl]amino]-4-carboxybutanoyl]-[Leu16,Lys24,Leu27,Ser28]-Glucagon] | 2.9
2 | CC(=O)N[C@@H](CCC(=O)N[C@@H](CCC(=O)N[C@@H](CCC(=O)N[C@@H](CCC(=O)NCCCC[C@H](NC(=O)[C@@H](NC(=O)[C@H](Cc1ccccc1)NC(=O)[C@H](CC(=O)O)NC(=O)[C@H](CCC(N)=O)NC(=O)[C@H](C)NC(=O)[C@H](CCCNC(=N)N)NC(=O)[C@H](CCCNC(=N)N)NC(=O)[C@H](CC(C)C)NC(=O)[C@H](CC(=O)O)NC(=O)[C@H](CC(C)C)NC(=O)[C@H](Cc1ccc(O)cc1)NC(=O)[C@H](CCCNC(=N)N)NC(=O)[C@H](CO)NC(=O)[C@H](Cc1ccc(O)cc1)NC(=O)[C@H](CC(=O)O)NC(=O)[C@H](CO)NC(=O)[C@@H](NC(=O)[C@H](Cc1ccccc1)NC(=O)[C@@H](NC(=O)CNC(=O)[C@H](CCC(N)=O)NC(=O)[C@H](CO)NC(=O)[C@@H](N)Cc1c[nH]cn1)[C@@H](C)O)[C@@H](C)O)C(C)C)C(=O)N[C@@H](Cc1c[nH]c2ccccc12)C(=O)N[C@@H](CC(C)C)C(=O)N[C@@H](CC(C)C)C(=O)N[C@@H](CO)C(=O)N[C@H](C(=O)O)[C@@H](C)O)C(=O)O)C(=O)O)C(=O)O)C(=O)O [Example 39, N^ε24-[(4S)-4-[[(4S)-4-[[(4S)-4-[[(4S)-4-acetamido-4-carboxybutanoyl]amino]-4-carboxybutanoyl]amino]-4-carboxybutanoyl]amino]-4-carboxybutanoyl]-[Arg12,Leu16,Lys24,Leu27,Ser28]-Glucagon] (H-HSQGTFTSDYSRYLDLRRAQDFVK([γGlu-γGlu-γGlu-γGlu-Ac])WLLST-OH) | 3
3 | CC(=O)N[C@@H](CCC(=O)N[C@@H](CCC(=O)N[C@@H](CCC(=O)N[C@@H](CCC(=O)NCCCC[C@H](NC(=O)[C@@H](NC(=O)[C@H](Cc1ccccc1)NC(=O)[C@H](CC(=O)O)NC(=O)[C@H](CCC(N)=O)NC(=O)[C@H](C)NC(=O)[C@H](CCCNC(=N)N)NC(=O)[C@H](CCCNC(=N)N)NC(=O)[C@H](CC(C)C)NC(=O)[C@H](CC(=O)O)NC(=O)[C@H](CC(C)C)NC(=O)[C@H](Cc1ccc(O)cc1)NC(=O)[C@H](CCCNC(=N)N)NC(=O)[C@H](CO)NC(=O)[C@H](Cc1ccc(O)cc1)NC(=O)[C@H](CC(=O)O)NC(=O)[C@H](CO)NC(=O)[C@@H](NC(=O)[C@H](Cc1ccccc1)NC(=O)[C@@H](NC(=O)CNC(=O)[C@H](CCC(N)=O)NC(=O)[C@H](CO)NC(=O)[C@@H](N)Cc1c[nH]cn1)[C@@H](C)O)[C@@H](C)O)C(C)C)C(=O)N[C@@H](Cc1c[nH]c2ccccc12)C(=O)N[C@@H](CC(C)C)C(=O)N[C@@H](CC(C)C)C(=O)N[C@@H](CO)C(=O)N[C@H](C(=O)N1CCC[C@H]1C(=O)O)[C@@H](C)O)C(=O)O)C(=O)O)C(=O)O)C(=O)O [Example 40, N^ε24-[(4S)-4-[[(4S)-4-[[(4S)-4-[[(4S)-4-acetamido-4-carboxybutanoyl]amino]-4-carboxybutanoyl]amino]-4-carboxybutanoyl]amino]-4-carboxybutanoyl]-[Arg12,Leu16,Lys24,Leu27,Ser28]-Glucagonyl-Pro] (H-HSQGTFTSDYSRYLDLRRAQDFVK([γGlu-γGlu-γGlu-γGlu-Ac])WLLSTP-OH) | 3
4 | CC(=O)N[C@@H](CCC(=O)N[C@@H](CCC(=O)N[C@@H](CCC(=O)N[C@@H](CCC(=O)NCCCC[C@H](NC(=O)[C@@H](NC(=O)[C@H](Cc1ccccc1)NC(=O)[C@H](CC(=O)O)NC(=O)[C@H](CCC(N)=O)NC(=O)[C@H](C)NC(=O)[C@H](CCCNC(=N)N)NC(=O)[C@H](CCCNC(=N)N)NC(=O)[C@H](CC(C)C)NC(=O)[C@H](CC(=O)O)NC(=O)[C@H](CC(C)C)NC(=O)[C@H](Cc1ccc(O)cc1)NC(=O)[C@H](CCCCN)NC(=O)[C@H](CO)NC(=O)[C@H](Cc1ccc(O)cc1)NC(=O)[C@H](CC(=O)O)NC(=O)[C@H](CO)NC(=O)[C@@H](NC(=O)[C@H](Cc1ccccc1)NC(=O)[C@@H](NC(=O)CNC(=O)[C@H](CCC(N)=O)NC(=O)[C@@H](NC(=O)[C@@H](N)Cc1c[nH]cn1)[C@@H](C)O)[C@@H](C)O)[C@@H](C)O)C(C)C)C(=O)N[C@@H](Cc1c[nH]c2ccccc12)C(=O)N[C@@H](CC(C)C)C(=O)N[C@@H](CC(C)C)C(=O)N[C@@H](CO)C(=O)N[C@H](C(=O)O)[C@@H](C)O)C(=O)O)C(=O)O)C(=O)O)C(=O)O [Example 41, N^e24-[(4S)-4-[[(4S)-4-[[(4S)-4-[[(4S)-4-acetamido-4-carboxybutanoyl]amino]-4-carboxybutanoyl]amino]-4-carboxybutanoyl]amino]-4-carboxybutanoyl]-[Thr^2,Leu^16,Lys^24,Leu^27,Ser^28]-Glucagon] (H-HTQGTFTSDYSKYLDLRRAQDFVK([γGlu-γGlu-γGlu-γGlu-Ac])WLLST-OH) | 3
5 | CC(=O)N[C@@H](CCC(=O)N[C@@H](CCC(=O)N[C@@H](CCC(=O)N[C@@H](CCC(=O)NCCCC[C@H](NC(=O)[C@@H](NC(=O)[C@H](Cc1ccccc1)NC(=O)[C@H](CC(=O)O)NC(=O)[C@H](CCC(N)=O)NC(=O)[C@H](C)NC(=O)[C@H](CCCNC(=N)N)NC(=O)[C@H](CCCNC(=N)N)NC(=O)[C@H](CC(C)C)NC(=O)[C@H](CC(=O)O)NC(=O)[C@H](CC(C)C)NC(=O)[C@H](Cc1ccc(O)cc1)NC(=O)[C@H](CCCCN)NC(=O)[C@H](CO)NC(=O)[C@H](Cc1ccc(O)cc1)NC(=O)[C@H](CC(=O)O)NC(=O)[C@H](CO)NC(=O)[C@@H](NC(=O)[C@H](Cc1ccccc1)NC(=O)[C@@H](NC(=O)CNC(=O)[C@H](CCC(N)=O)NC(=O)[C@H](C)NC(=O)[C@@H](N)Cc1c[nH]cn1)[C@@H](C)O)[C@@H](C)O)C(C)C)C(=O)N[C@@H](Cc1c[nH]c2ccccc12)C(=O)N[C@@H](CC(C)C)C(=O)N[C@@H](CC(C)C)C(=O)N[C@@H](CO)C(=O)N[C@H](C(=O)O)[C@@H](C)O)C(=O)O)C(=O)O)C(=O)O)C(=O)O [Example 42] (H-HAQGTFTSDYSKYLDLRRAQDFVK([γGlu-γGlu-γGlu-γGlu-Ac])WLLST-OH) | 8
6 | CC(=O)N[C@@H](CCC(=O)N[C@@H](CCC(=O)N[C@@H](CCC(=O)N[C@@H](CCC(=O)NCCCC[C@H](NC(=O)[C@@H](NC(=O)[C@H](Cc1ccccc1)NC(=O)[C@H](CC(=O)O)NC(=O)[C@H](CCC(N)=O)NC(=O)[C@H](C)NC(=O)[C@H](CCCNC(=N)N)NC(=O)[C@H](CCCNC(=N)N)NC(=O)[C@H](CC(C)C)NC(=O)[C@H](CC(=O)O)NC(=O)[C@H](CC(C)C)NC(=O)[C@H](Cc1ccc(O)cc1)NC(=O)[C@H](CCCCN)NC(=O)[C@H](CO)NC(=O)[C@@H](NC(=O)[C@H](CC(=O)O)NC(=O)[C@H](CO)NC(=O)[C@@H](NC(=O)[C@H](Cc1ccccc1)NC(=O)[C@@H](NC(=O)CNC(=O)[C@H](CCC(N)=O)NC(=O)[C@H](CO)NC(=O)[C@@H](N)Cc1c[nH]cn1)[C@@H](C)O)[C@@H](C)O)C(C)C)C(C)C)C(=O)N[C@@H](Cc1c[nH]c2ccccc12)C(=O)N[C@@H](CC(C)C)C(=O)N[C@@H](CC(C)C)C(=O)N[C@@H](CO)C(=O)N[C@H](C(=O)O)[C@@H](C)O)C(=O)O)C(=O)O)C(=O)O)C(=O)O [Example 43, N^ε24-[(4S)-4-[[(4S)-4-[[(4S)-4-[[(4S)-4-acetamido-4-carboxybutanoyl]amino]-4-carboxybutanoyl]amino]-4-carboxybutanoyl]amino]-4-carboxybutanoyl]-[Val^10,Leu^16,Lys^24,Leu^27,Ser^28]-Glucagon] (H-HSQGTFTSDVSKYLDLRRAQDFVK([γGlu-γGlu-γGlu-γGlu-Ac])WLLST-OH) | 16
7 | CC(=O)N[C@@H](CCC(=O)N[C@@H](CCC(=O)N[C@@H](CCC(=O)N[C@@H](CCC(=O)NCCCC[C@H](NC(=O)[C@@H](NC(=O)[C@H](Cc1ccccc1)NC(=O)[C@H](CC(=O)O)NC(=O)[C@H](CCC(N)=O)NC(=O)[C@H](C)NC(=O)[C@H](CCCNC(=N)N)NC(=O)[C@H](CCCNC(=N)N)NC(=O)[C@H](CO)NC(=O)[C@H](CCC(=O)O)NC(=O)[C@H](CC(C)C)NC(=O)[C@H](Cc1ccc(O)cc1)NC(=O)[C@H](CCCCN)NC(=O)[C@H](CO)NC(=O)[C@@H](NC(=O)[C@H](CC(=O)O)NC(=O)[C@H](CO)NC(=O)[C@@H](NC(=O)[C@H](Cc1ccccc1)NC(=O)[C@@H](NC(=O)CNC(=O)[C@H](CCC(N)=O)NC(=O)[C@H](CO)NC(=O)[C@@H](N)Cc1c[nH]cn1)[C@@H](C)O)[C@@H](C)O)C(C)C)C(C)C)C(=O)N[C@@H](Cc1c[nH]c2ccccc12)C(=O)N[C@@H](CC(C)C)C(=O)N[C@@H](CC(C)C)C(=O)N[C@@H](CO)C(=O)N[C@H](C(=O)O)[C@@H](C)O)C(=O)O)C(=O)O)C(=O)O)C(=O)O [Example 44, N^ε24-[(4S)-4-[[(4S)-4-[[(4S)-4-[[(4S)-4-acetamido-4-carboxybutanoyl]amino]-4-carboxybutanoyl]amino]-4-carboxybutanoyl]amino]-4-carboxybutanoyl]-[Val^10,Glu^15,Lys^24,Leu^27,Ser^28]-Glucagon] (H-HSQGTFTSDVSKYLESRRAQDFVK([γGlu-γGlu-γGlu-γGlu-Ac])WLLST-OH) | 75
